Measured values reported in patent US12605382B2, “Pharmaceutical composition for preventing, alleviating, or treating cancer containing 2,6-dichloro-4-(4-(4-hydroxycyclohexylamino)-7H- pyrrolo[2,3-d]pyrimidin-5-yl)phenol as active ingredient” (JBKLAB CO., LTD., priority 2021, dated 2026).

What was measured:
BT20 = assay: Cell viability assay (WST-8), breast cancer cell line; format: cell-based, human; conditions: dose dependently
Description: (§1) An experiment was performed to confirm the growth inhibitory effect of the compound of Example 1, the active ingredient of the pharmaceutical composition of the present invention, on breast cancer cell lines through cell viability assay.
(§2) Specifically, the cell viability assay was performed as follows. BT20, a human-derived breast cancer cell line, and MDA-MB-231, a TNBC cell line, were each seeded in 96-well plates at the density of 5×10^3 cells/well and cultured for 24 hours. Then, I-bet 762 and the compound of Example 1 were treated thereto at different concentrations and cultured for 48 hours. At the end of the culture, 100 μl of WST-8 solution was added to each well of the plate, and the absorbance was measured with a microplate reader using a 450 nm optical filter to measure the formazan produced by the reducing factors in living cells.
(§3) FIGS. 4A-4C show the cell viability of MDA-MB-231, MDA-MB-453, and BT-20 after 24 hours of treatment with the compound of Example 1. As shown in FIGS. 4A-4C, it was confirmed that the cell viability was suppressed not only in general breast cancer cell lines, but also in TNBC cell lines dose dependently.

MDA-MB-231 = assay: Cell viability assay (WST-8), TNBC cell line; format: cell-based, human; conditions: dose dependently
Description: as §1, §2, §3

breast cancer cell line = assay: Formation of mammospheres in a breast cancer cell line; format: cell-based
[1] = test system: tumor tissues (MDA-MB-231); assay: H&E staining of tumor tissue, cell necrosis areas; format: in vivo, BALB/c-nude mice; conditions: T4, T5 and T6 groups
Description: An experiment was performed to confirm the tumor necrosis effect of the compound of Example 1, the active ingredient of the pharmaceutical composition of the present invention, by measuring the number of apoptotic bodies in tumors and H&E staining of the tumor tissues in BALB/c-nude mice injected with cancer cell lines.
Then, the sections were stained with hematoxylin and eosin, and cell necrosis areas were observed.

Hep3B = assay: WST-8 cell viability assay, hepatocellular carcinoma cell line; format: cell-based
Description: (§4) Specifically, the WST-8 assay to check the cell viability of HepG2 and Hep3B, which are hepatocellular carcinoma cell lines shown in FIGS. 7A-7C and 8A-8C, was performed as follows. HepG2 and Hep3B were each seeded in 96-well plates at the density of 5×10^3 cells/well and cultured for 24 hours. Then, Sorafenib and OPT-0139 were diluted stepwise at a twofold concentration and then treated to the plates at different concentrations, followed by culture for 24, 48, and 72 hours. […] of WST-8 solution was added to each well of the plate, and the absorbance was measured with a microplate reader using a 450 nm optical filter to measure the formazan produced by the reducing factors in living cells.
(§5) Therefore, the number of living cells could be measured by measuring absorbance.

HepG2 = assay: as above; format: cell-based
Description: as §4, §5

[2] = test system: 4T1 murine triple negative breast cancer cells; assay: Tumor size in triple-negative breast cancer allograft mouse model; format: in vivo, BALB/c mice; conditions: 10 mg/kg intravenously
Description: (§6) 4T1 murine triple negative breast cancer cells (6×10^5 cells) were injected into the hind limbs of 6-week-old immune-competent BALB/c mice. Seven days after injection, after confirming consistent tumor growth, 10 mice from each group were selected and used in subsequent experiments.
(§7) The experimental groups consisted of a control group (no treatment), a radiotherapy group, a group treated with the compound of Example 1, and a group treated with a combination of the compound of Example 1 and radiotherapy. Each treatment was carried out for 31 days after tumor implantation.
(§8) Radiation treatment was performed using electron beams, and a total of 24 Gy was irradiated three times, once every two days for one week (Days 10, 12, and 14) (8 Gy×3). The compound of Example 1 was administered intravenously at a dose of 10 mg/kg once every 2 or 3 days (Days 10, 12, 14, 17, 19, and 21) for a total of 6 times over 2 weeks. On the days when radiation therapy and drug administration were conducted simultaneously, the compound of Example 1 was administered after confirming that the mice had recovered from anesthesia 4 hours after radiation therapy.
On each treatment day, the length and width of the tumor were measured using a vernier caliper, and then the tumor volume (mm^3) was calculated using mathematical formula 1 below. Volume (mm^3)=length (mm)×{width (mm)}^2×0.5 [Mathematical Formula 1]

[3] = test system: 4T1 murine triple negative breast cancer cells; assay: Lung metastasis in triple-negative breast cancer allograft mouse model; format: in vivo, BALB/c mice; conditions: 31st day
Description: as §6, §7, §8
Mice were prepared in the same manner as in Example 8, and the lungs of the mice were removed on the 31st day after tumor injection, and the results of observing lung metastasis are shown in FIG. 13.

CD8+ T cells = assay: Flow cytometric analysis (FACS) of tumor tissue, 4T1 allograft model; format: in vivo, BALB/c mice; conditions: 31 days
Description: (§9) The tumor tissues from each mouse were subjected to single cell isolation, followed by flow cytometric analysis (FACS) to confirm the immunomodulatory effect.
(§10) Specifically, the spleen and tumor of the mouse were extracted 31 days after tumor cell injection in the same manner as in Example 8. After the tumor tissue was excised, it was mechanically processed by fine chopping using a sterilized razor blade, and then treated with DNase (0.1 mg/ml) and collagenase (1 mg/ml), respectively, and reacted at 36° C. for 30 minutes to obtain a single cell suspension. To analyze infiltrating leukocytes after isolation of single cells from the tumor tissue, […] cells per FACS tube were stained with FITC, PE, PerCP/Cy5.5, and APC fluorescence using CD3 antibody, CD8b antibody, CD4 antibody, CD11b antibody, F4/80 antibody, and CD206 antibody. For each stained sample, the fraction of CD8+ cytotoxic T cells was calculated using BD Bioscience FACSCalibur machines. Analysis of the FACS results was performed using FlowJo software, version 10.

M1 TAM = assay: as above; format: in vivo, BALB/c mice
Description: as §9, §10

M2 TAM = assay: as above; format: in vivo, BALB/c mice
Description: as §9, §10

OVCAR-3 = assay: Cell viability alone and in combination with cisplatin; format: cell-based, Human
Description: (§11) Human ovarian cancer cell lines (SKOV-3 and OVCAR-3) were treated with control (no treatment), 0.1 μM of the compound of Example 1, 1 μM of cisplatin, and 0.1 μM of the compound of Example 1/1 μM of cisplatin, and the cell viability of SKOV-3 and OVCAR-3 was confirmed.

SKOV-3 = assay: as above; format: cell-based, Human
Description: as §11

[4] = 0.1 μM Example 1 combined with 1 μM cisplatin

Structure (SMILES): Oc1c(Cl)cc(-c2c[nH]c3ncnc(N[C@H]4CC[C@H](O)CC4)c23)cc1Cl [Example 1, (trans)-2,6-dichloro-4-(4-(4-hydroxycyclohexylamino)-7H-pyrrolo[2,3-d]pyrimidin-5-yl)phenol]
- cell viability (BT20; BT20, 48 hours): inhibited the cell viability
- cell viability (BT20; BT-20, 24 hours): suppressed
- cell viability (MDA-MB-231; MDA-MB-231, 24 hours): suppressed
- cell viability (MDA-MB-231; MDA-MB-231, 48 hours): inhibited the cell viability
- formation of mammospheres (breast cancer cell line): inhibits
- areas of tissue necrosis compared to NC group (H&E) [1]: more areas of tissue necrosis
- effect on cell viability compared to Sorafenib (Hep3B): remarkable effect compared to Sorafenib
- cell viability (Hep3B; 24, 48 and 72 hours): decreased the cell viability dose and time dependently
- effect on cell viability compared to Sorafenib (HepG2): remarkable effect compared to Sorafenib
- cell viability (HepG2; 24, 48 and 72 hours): decreased the cell viability dose and time dependently
- tumor growth compared to control group ([2]; alone, 6 times over 2 weeks, observed 31 days): significantly delayed the tumor growth
- tumor growth compared to each administration alone ([2]; combined with radiation (8 Gy×3), 6 times): superior inhibitory effect on the tumor growth
- lung metastasis compared to control group ([3]; alone, 10 mg/kg intravenously): significantly reduced metastasis
- lung metastases compared to each administration alone ([3]; combined with radiation (8 Gy×3)): significantly (P<0.05) reduced lung metastases
- proportion of CD8+ T cells in tumor (CD8+ T cells; alone): increased
- proportion of CD8+ T cells in tumor compared to each administration alone (CD8+ T cells; combined with radiation): significantly increased
- M1 TAM (M1 TAM; alone): significantly (P<0.01) increased
- M1 TAM (M1 TAM; combined with radiation): increase
- M2 TAM (M2 TAM; alone): significantly (P<0.01) decreased
- M2 TAM (M2 TAM; combined with radiation): decrease
- cell viability (OVCAR-3; [4]): further inhibited (synergistic effect)
- cell viability (OVCAR-3; 0.1 μM alone): suppressed
- cell viability (SKOV-3; [4]): further inhibited (synergistic effect)
- cell viability (SKOV-3; 0.1 μM alone): suppressed
